Structures can show the parent of a compound that is named as a salt.

This data set can be described thus: Body weight, organ index and HE histopathology of treated mice. In kind it is in vivo. The note with it: for Change in body weight: tumor-bearing mice, intratumoral injection, 14 days, DOX 5 mg/kg, ICG 1 mg/kg, LASER groups 808 nm 1 W/cm^2 5 min. Here is the method: Thirty female mice were randomly divided into 6 groups with 5 mice per group: (1) a saline group: injection of saline only; (2) a DOX group (5 mg/kg): injection of DOX; (3) a GEL/LASER group: a combined effect of the HPCS/MP hydrogel and NIR light irradiation; (4) a GEL/DOX (5 mg/kg) group: an effect of the HPCS/MP hydrogel encapsulating DOX·HCL; (5) a GEL/DOX (5 mg/kg)/LASER group: a combined effect of HPCS/MP hydrogel encapsulating DOX·HCL and NIR light irradiation, and (6) an indocyanine green (ICG) (1 mg/kg) group: injection of ICG. The different groups of mice were injected with 100 μL of saline, DOX, ICG, an HPCS/MP hydrogel precursor solution, and a GEL/DOX hydrogel precursor solution by intratumoral injection.
In the laser irradiation group LASER was irradiated for 5 min using an laser of 808 nm at a power of 1 W/cm^2 on days 2, 4, 6, 8, 10, and 12 after drug administration, and an irradiated site was a tumor site visible to naked eyes, with a light source positioned 5 cm from a body surface. The date of irradiation was designated as day 1, and an observation period extended to 14 days. A tumor volume was measured with a vernier caliper and a weight of the mice was weighed using an electronic balance every two days, and then a curve of the tumor volume, the body weight, and time was plotted. On the 14th day, the mice were euthanized, and axillary tumor bodies and tissues of the heart, liver, spleen, lung, and kidney of the mice were collected. The weights of the tumors and organ tissues of the various groups were accurately measured and recorded to calculate a tumor inhibition rate and an organ index of each group. Then immunohistochemistry and HE staining were performed for pathological analysis.

`COc1cccc2c1C(=O)c1c(O)c3c(c(O)c1C2=O)C[C@@](O)(C(=O)CO)C[C@@H]3O[C@H]1C[C@H](N)[C@H](O)[C@H](C)O1` [DOX, doxorubicin hydrochloride]: the “Change in body weight” value was “significant downward trend in the body weight”. For the same compound, under “mice, 14th day”, the “HE staining of liver sections compared with control group” value is “very loose”, the “HE staining of lung tissues” value is reported as “some degree of damage”, the “HE staining of renal tissue sections” value is on record as “some slight damage” and the “HE staining of spleen tissues compared with control group” value is given as “tissues became loose”. The “Liver index compared to control group” value (mice, 14th day) is given as “significantly reduced”.
On to `CC1(C)C(/C=C/C=C/C=C/C=C2\N(CCCCS(=O)(=O)O)c3ccc4ccccc4c3C2(C)C)=[N+](CCCCS(=O)(=O)[O-])c2ccc3ccccc3c21` [ICG, indocyanine green], for which the “Change in body weight” value is on record as “decrease trend in the body weight”. Under “mice, 14th day”, the “HE staining of liver sections compared with control group” value is given as “slight loosening”.

These data come from patent US12102682B1, “Injectable photothermal hydrogel based on melanin, preparation method, and application thereof” (OCEAN UNIVERSITY OF CHINA, priority 2023, dated 2024).
